Reference: paper PMC11357990, “A first-in-class selective inhibitor of EGFR and PI3K offers a single-molecule approach to targeting adaptive resistance” (Nature Cancer, 2024)

How the values were obtained:
PI3Kδ = biological target: T1, PI3Kδ (Homo sapiens, UniProt O00329); test: biochemical kinase assay at ATP Km apparent
T1 construct: gene PIK3CD

PI3Kα = PI3Kα (Homo sapiens, UniProt P42336); test: biochemical kinase assay at ATP Km apparent; parameters: gene PIK3CA
[1] = biological target: T2, alpha 1D (h) (antagonist radioligand) (Homo sapiens, UniProt P25100); test: biochemical; details: read-out: Binding / ================================================= / % Inhibition of Control Specific Binding
T2 construct: gene ADRA1D

[2] = biological target: T3, M3 (h) (antagonist radioligand) (Homo sapiens, UniProt P20309); test: biochemical; details: read-out: Binding / ================================================= / % Inhibition of Control Specific Binding
T3 construct: gene CHRM3

[3] = biological target: T4, GR (h) (agonist radioligand) (Homo sapiens, UniProt P04150); test: biochemical; details: read-out: Binding / ================================================= / % Inhibition of Control Specific Binding
T4 construct: gene NR3C1

[4] = biological target: T5, 5-HT3 (h) (antagonist radioligand) (Homo sapiens, UniProt P46098); test: biochemical; details: read-out: Binding / ================================================= / % Inhibition of Control Specific Binding
T5 construct: gene HTR3A

[5] = biological target: T6, GABAB(1b) (h) (antagonist radioligand) (Homo sapiens, UniProt Q9UBS5); test: biochemical; details: read-out: Binding / ================================================= / % Inhibition of Control Specific Binding
T6 construct: gene GABBR1

[6] = biological target: T7, MC4 (h) (agonist radioligand) (Homo sapiens, UniProt P32245); test: biochemical; details: read-out: Binding / ================================================= / % Inhibition of Control Specific Binding
T7 construct: gene MC4R

[7] = biological target: T8, alpha 1A (h) (antagonist radioligand) (Homo sapiens, UniProt P35348); test: biochemical; details: read-out: Binding / ================================================= / % Inhibition of Control Specific Binding
T8 construct: gene ADRA1A

[8] = biological target: T9, norepinephrine transporter (h) (antagonist radioligand) (Homo sapiens, UniProt P23975); test: biochemical; details: read-out: Binding / ================================================= / % Inhibition of Control Specific Binding
T9 construct: gene SLC6A2

[9] = biological target: T10, D2S (h) (agonist radioligand) (Homo sapiens, UniProt P14416); test: biochemical; details: read-out: Binding / ================================================= / % Inhibition of Control Specific Binding
T10 construct: gene DRD2

[10] = biological target: T11, CB2 (h) (agonist radioligand) (Homo sapiens, UniProt P34972); test: biochemical; details: read-out: Binding / ================================================= / % Inhibition of Control Specific Binding
T11 construct: gene CNR2

[11] = biological target: T12, AT1 (h) (antagonist radioligand) (Homo sapiens, UniProt P30556); test: biochemical; details: read-out: Binding / ================================================= / % Inhibition of Control Specific Binding
T12 construct: gene AGTR1

[12] = biological target: T13, 5-HT transporter (h) (antagonist radioligand) (Homo sapiens, UniProt P31645); test: biochemical; details: read-out: Binding / ================================================= / % Inhibition of Control Specific Binding
T13 construct: gene SLC6A4

[13] = biological target: T14, beta 1 (h) (agonist radioligand) (Homo sapiens, UniProt P08588); test: biochemical; details: read-out: Binding / ================================================= / % Inhibition of Control Specific Binding
T14 construct: gene ADRB1

[14] = biological target: T15, NK1 (h) (agonist radioligand) (Homo sapiens, UniProt P25103); test: biochemical; details: read-out: Binding / ================================================= / % Inhibition of Control Specific Binding
T15 construct: gene TACR1

[15] = biological target: CXCR2 (IL-8B) (h) (agonist radioligand) (Homo sapiens, UniProt P25025); test: biochemical; details: read-out: Binding / ================================================= / % Inhibition of Control Specific Binding
[16] = biological target: T16, N muscle-type (h) (antagonist radioligand) (Homo sapiens, UniProt P02708+P07510+Q07001); test: biochemical; details: read-out: Binding / ================================================= / % Inhibition of Control Specific Binding
T16 construct: gene CHRNA1

[17] = biological target: T17, PR (h) (agonist radioligand) (Homo sapiens, UniProt P06401); test: biochemical; details: read-out: Binding / ================================================= / % Inhibition of Control Specific Binding
T17 construct: gene PGR

[18] = biological target: T18, Estrogen ER alpha (h) (agonist radioligand) (Homo sapiens, UniProt P03372); test: biochemical; details: read-out: Binding / ================================================= / % Inhibition of Control Specific Binding
T18 construct: gene ESR1

[19] = biological target: T19, 5-HT1B (h) (antagonist radioligand) (Homo sapiens, UniProt P28222); test: biochemical; details: read-out: Binding / ================================================= / % Inhibition of Control Specific Binding
T19 construct: gene HTR1B

[20] = biological target: CCR1 (h) (agonist radioligand) (Homo sapiens, UniProt P32246); test: biochemical; details: read-out: Binding / ================================================= / % Inhibition of Control Specific Binding
[21] = biological target: T20, H1 (h) (antagonist radioligand) (Homo sapiens, UniProt P35367); test: biochemical; details: read-out: Binding / ================================================= / % Inhibition of Control Specific Binding
T20 construct: gene HRH1

[22] = biological target: T21, B2 (h) (agonist radioligand) (Homo sapiens, UniProt P30411); test: biochemical; details: read-out: Binding / ================================================= / % Inhibition of Control Specific Binding
T21 construct: gene BDKRB2

[23] = biological target: T22, GABAA1 (h) (alpha 1,beta 2,gamma 2) (agonist radioligand) (Homo sapiens, UniProt P14867+P47870); test: biochemical; details: read-out: Binding / ================================================= / % Inhibition of Control Specific Binding
T22 construct: gene GABRA1

[24] = biological target: T23, CCK2 (CCKB) (h) (agonist radioligand) (Homo sapiens, UniProt P32239); test: biochemical; details: read-out: Binding / ================================================= / % Inhibition of Control Specific Binding
T23 construct: gene CCKBR

[25] = biological target: T24, N neuronal alpha 4beta 2 (h) (agonist radioligand) (Homo sapiens, UniProt P17787+P43681); test: biochemical; details: read-out: Binding / ================================================= / % Inhibition of Control Specific Binding
T24 construct: gene CHRNB2

[26] = biological target: T25, MAO-A (antagonist radioligand) (Rattus norvegicus, UniProt P21396); test: biochemical; details: read-out: Binding / ================================================= / % Inhibition of Control Specific Binding
T25 construct: gene Maoa

[27] = biological target: T26, RARalpha (h) (agonist radioligand) (Homo sapiens, UniProt P10276); test: biochemical; details: read-out: Binding / ================================================= / % Inhibition of Control Specific Binding
T26 construct: gene RARA

[28] = biological target: T27, 5-HT2B (h) (agonist radioligand) (Homo sapiens, UniProt P41595); test: biochemical; details: read-out: Binding / ================================================= / % Inhibition of Control Specific Binding
T27 construct: gene HTR2B

Chain of PI3Kα (P42336 whole entry): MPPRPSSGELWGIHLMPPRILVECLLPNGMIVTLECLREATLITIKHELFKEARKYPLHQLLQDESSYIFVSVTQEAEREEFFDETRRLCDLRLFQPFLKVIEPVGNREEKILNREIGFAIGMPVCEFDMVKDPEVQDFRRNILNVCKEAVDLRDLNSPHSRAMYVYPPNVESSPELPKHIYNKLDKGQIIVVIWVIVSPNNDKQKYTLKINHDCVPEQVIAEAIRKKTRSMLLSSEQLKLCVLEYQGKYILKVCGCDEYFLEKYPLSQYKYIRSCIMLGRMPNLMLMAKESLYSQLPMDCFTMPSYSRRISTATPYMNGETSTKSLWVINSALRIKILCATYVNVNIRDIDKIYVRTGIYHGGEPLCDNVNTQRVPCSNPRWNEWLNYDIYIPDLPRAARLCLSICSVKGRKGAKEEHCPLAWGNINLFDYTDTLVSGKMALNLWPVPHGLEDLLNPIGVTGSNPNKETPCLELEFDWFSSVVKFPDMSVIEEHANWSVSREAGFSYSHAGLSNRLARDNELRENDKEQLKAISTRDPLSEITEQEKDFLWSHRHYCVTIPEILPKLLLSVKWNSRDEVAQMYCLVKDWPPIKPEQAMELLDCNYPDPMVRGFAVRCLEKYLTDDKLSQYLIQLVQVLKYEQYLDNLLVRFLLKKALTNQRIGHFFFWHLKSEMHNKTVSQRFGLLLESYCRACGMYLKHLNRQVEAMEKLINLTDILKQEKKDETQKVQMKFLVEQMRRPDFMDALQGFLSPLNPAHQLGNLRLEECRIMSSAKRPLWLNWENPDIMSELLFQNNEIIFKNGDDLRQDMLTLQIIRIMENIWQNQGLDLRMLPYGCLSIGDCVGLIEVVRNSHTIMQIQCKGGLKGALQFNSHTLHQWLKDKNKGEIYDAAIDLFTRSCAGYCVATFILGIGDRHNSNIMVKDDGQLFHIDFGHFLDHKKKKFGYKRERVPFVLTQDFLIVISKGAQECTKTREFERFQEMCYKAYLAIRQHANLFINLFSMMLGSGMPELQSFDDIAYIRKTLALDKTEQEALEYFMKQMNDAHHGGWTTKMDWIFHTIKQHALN
T24 sequence (P17787 whole entry): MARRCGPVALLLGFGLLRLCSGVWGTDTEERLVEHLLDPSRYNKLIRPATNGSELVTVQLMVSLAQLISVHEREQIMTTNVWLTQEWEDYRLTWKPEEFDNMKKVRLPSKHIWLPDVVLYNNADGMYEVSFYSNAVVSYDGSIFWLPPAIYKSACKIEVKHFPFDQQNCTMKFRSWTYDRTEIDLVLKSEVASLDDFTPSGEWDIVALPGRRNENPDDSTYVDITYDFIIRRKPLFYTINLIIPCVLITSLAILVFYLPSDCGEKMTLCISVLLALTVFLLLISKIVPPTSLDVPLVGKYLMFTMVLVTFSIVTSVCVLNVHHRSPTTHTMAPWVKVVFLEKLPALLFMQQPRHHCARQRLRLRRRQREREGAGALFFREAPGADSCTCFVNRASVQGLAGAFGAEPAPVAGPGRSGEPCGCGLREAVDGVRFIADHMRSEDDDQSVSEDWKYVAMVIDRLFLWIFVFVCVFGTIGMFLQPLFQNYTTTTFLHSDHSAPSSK
T24 sequence (P43681 whole entry): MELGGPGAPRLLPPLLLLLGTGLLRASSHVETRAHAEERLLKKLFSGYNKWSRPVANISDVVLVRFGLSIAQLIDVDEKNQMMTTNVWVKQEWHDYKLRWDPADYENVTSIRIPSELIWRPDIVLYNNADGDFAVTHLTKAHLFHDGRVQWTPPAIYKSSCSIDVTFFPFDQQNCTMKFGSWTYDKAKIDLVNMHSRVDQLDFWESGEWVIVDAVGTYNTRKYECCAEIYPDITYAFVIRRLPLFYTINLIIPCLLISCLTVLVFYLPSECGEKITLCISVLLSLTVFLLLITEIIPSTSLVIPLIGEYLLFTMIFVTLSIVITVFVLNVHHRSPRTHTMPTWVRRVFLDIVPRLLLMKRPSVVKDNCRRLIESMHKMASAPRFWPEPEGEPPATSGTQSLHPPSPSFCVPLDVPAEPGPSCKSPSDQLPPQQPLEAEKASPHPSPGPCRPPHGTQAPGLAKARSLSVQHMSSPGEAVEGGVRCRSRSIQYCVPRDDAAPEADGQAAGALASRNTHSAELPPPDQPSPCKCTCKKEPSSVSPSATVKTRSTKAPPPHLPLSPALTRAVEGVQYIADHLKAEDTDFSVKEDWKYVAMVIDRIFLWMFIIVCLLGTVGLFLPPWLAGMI
T3 sequence (P20309 whole entry): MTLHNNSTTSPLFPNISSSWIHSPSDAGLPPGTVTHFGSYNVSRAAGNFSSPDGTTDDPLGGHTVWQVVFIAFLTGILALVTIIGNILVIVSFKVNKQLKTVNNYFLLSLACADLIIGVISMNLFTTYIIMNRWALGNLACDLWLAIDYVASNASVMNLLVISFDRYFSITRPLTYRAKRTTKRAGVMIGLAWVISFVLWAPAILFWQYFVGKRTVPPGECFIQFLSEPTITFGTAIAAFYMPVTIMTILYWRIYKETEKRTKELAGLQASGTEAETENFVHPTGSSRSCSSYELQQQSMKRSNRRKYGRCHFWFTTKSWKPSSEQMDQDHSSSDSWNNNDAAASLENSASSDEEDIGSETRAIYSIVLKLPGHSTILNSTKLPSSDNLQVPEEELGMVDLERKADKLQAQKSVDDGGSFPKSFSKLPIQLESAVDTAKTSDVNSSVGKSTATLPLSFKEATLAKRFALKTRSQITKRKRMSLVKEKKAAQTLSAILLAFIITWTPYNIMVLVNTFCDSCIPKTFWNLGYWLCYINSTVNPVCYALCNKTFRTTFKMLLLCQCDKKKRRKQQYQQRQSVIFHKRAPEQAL
T17 sequence (P06401 whole entry): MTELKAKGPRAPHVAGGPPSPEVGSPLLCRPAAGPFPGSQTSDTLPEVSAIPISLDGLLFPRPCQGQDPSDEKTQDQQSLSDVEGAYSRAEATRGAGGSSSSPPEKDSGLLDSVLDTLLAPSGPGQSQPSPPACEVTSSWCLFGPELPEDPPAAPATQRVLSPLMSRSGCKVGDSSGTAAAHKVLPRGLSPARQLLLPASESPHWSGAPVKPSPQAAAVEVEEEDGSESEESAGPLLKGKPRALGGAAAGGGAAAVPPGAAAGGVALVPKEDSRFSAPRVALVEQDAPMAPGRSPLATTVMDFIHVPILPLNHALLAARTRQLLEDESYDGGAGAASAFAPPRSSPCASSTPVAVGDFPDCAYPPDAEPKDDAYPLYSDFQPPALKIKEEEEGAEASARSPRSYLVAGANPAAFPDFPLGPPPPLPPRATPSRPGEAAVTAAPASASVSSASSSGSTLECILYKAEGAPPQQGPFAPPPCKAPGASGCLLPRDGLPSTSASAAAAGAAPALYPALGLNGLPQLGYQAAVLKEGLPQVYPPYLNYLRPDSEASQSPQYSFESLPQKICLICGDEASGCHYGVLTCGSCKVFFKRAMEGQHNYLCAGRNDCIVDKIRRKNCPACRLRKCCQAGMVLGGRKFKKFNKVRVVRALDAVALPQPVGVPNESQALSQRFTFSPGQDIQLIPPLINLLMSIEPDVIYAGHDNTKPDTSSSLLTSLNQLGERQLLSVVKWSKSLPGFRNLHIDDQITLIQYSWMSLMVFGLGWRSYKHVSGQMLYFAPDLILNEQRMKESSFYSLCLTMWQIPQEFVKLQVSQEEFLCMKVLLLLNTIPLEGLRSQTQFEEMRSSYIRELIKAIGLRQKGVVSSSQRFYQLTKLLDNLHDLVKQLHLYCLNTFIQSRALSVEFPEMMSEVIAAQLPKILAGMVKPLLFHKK
T7 sequence (P32245 whole entry): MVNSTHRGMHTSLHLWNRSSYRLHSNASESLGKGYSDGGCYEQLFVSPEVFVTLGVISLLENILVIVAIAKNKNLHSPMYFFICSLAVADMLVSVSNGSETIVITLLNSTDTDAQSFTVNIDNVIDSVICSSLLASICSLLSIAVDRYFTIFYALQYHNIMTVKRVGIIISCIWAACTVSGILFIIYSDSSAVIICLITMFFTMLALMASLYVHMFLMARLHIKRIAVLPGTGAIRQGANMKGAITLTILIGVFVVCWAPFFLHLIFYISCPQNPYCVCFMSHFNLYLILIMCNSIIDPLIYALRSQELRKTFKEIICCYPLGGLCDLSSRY
T19 sequence (P28222 whole entry): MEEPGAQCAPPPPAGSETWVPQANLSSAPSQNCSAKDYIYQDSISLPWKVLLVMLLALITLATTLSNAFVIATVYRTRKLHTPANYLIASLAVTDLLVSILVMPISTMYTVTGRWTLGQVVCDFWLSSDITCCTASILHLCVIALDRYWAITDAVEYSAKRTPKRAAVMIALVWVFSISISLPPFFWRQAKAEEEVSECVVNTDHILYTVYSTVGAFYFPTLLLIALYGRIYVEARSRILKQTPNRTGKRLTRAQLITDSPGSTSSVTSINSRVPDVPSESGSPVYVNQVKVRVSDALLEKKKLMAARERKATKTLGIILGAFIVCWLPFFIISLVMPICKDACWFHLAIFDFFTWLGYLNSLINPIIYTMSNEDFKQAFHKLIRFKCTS
T12 sequence (P30556 whole entry): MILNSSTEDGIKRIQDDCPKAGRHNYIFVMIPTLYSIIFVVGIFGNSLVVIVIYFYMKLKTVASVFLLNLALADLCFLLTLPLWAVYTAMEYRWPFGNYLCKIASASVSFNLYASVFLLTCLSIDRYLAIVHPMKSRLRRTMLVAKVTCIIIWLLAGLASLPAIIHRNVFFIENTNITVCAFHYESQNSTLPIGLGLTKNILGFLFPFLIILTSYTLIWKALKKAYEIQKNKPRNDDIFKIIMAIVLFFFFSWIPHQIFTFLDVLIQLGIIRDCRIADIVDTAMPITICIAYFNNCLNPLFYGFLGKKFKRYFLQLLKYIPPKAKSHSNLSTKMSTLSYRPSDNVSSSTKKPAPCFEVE

C[C@@H](Nc1ncnc2ccc(-c3cnc(Cl)c(NS(C)(=O)=O)c3)cc12)c1ccccc1 [MTX-531, (R)-N-(2-chloro-5-(4-((1-phenylethyl)amino)quinazolin-6-yl)pyridin-3-yl)methane-sulfonamide]
IC50 (PI3Kδ): 1.1 nM | IC50 (PI3Kα): 6.4 nM | inhibition at 10 µM [1]: 17% | inhibition at 10 µM [2]: -4% | inhibition at 10 µM [3]: 3% | inhibition at 10 µM [4]: 10% | inhibition at 10 µM [5]: -3% | inhibition at 10 µM [6]: 1% | inhibition at 10 µM [7]: 9% | inhibition at 10 µM [8]: 19% | inhibition at 10 µM [9]: -4% | inhibition at 10 µM [10]: 39% | inhibition at 10 µM [11]: 4% | inhibition at 10 µM [12]: -1% | inhibition at 10 µM [13]: 1% | inhibition at 10 µM [14]: -5% | inhibition at 10 µM [15]: 4% | inhibition at 10 µM [16]: 6% | inhibition at 10 µM [17]: -14% | inhibition at 10 µM [18]: 6% | inhibition at 10 µM [19]: -21% | inhibition at 10 µM [20]: 0% | inhibition at 10 µM [21]: -7% | inhibition at 10 µM [22]: -1% | inhibition at 10 µM [23]: -5% | inhibition at 10 µM [24]: -8% | inhibition at 10 µM [25]: -8% | inhibition at 10 µM [26]: 8% | inhibition at 10 µM [27]: 4% | inhibition at 10 µM [28]: 2%
